Source: patent publication US9120820B2, “Fluorescent molecular probes for use in assays that measure test compound competitive binding with SAM-utilizing proteins” (CAYMAN CHEMICAL COMPANY, INCORPORATED, priority 2011, dated 2015)

Tests used:
PRMT4 = biological target: T1, PRMT4 (Homo sapiens, UniProt Q86X55); test: Radiometric methyltransferase assay, PRMT4; format: biochemical; settings: PRMT4 150 nM; compound 10 μM, 1 μM, or 0.1 μM; FIG. 13
T1 construct: made in house
T1 sequence (Q86X55 1-608): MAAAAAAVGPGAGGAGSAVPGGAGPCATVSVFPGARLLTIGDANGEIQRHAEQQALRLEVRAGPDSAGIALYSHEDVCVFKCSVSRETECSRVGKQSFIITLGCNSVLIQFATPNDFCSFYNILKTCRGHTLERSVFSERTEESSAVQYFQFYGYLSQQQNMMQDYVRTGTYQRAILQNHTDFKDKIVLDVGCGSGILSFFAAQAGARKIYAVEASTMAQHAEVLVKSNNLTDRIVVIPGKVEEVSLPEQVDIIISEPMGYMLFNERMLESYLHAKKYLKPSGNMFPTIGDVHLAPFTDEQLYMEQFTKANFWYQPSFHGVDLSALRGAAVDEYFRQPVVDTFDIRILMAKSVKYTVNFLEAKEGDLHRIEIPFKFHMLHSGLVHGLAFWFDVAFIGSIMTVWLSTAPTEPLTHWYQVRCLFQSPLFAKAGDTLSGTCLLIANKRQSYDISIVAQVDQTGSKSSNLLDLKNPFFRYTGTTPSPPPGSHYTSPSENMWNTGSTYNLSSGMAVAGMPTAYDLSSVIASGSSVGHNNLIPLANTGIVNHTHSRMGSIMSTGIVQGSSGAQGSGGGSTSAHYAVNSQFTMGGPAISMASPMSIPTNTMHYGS
Procedure: (§1) Reagents: Compound 16A was prepared by the method described in Example 4 and illustrated in FIG. 5. The Compounds 20A-iv and 20A-iii were prepared according to methods described in Example 6 and illustrated in FIG. 7. Enzymes were obtained from the Cayman Catalog with the exception of PRMT4 and PRMT6, which were produced in baculovirus and purified to near homogeneity using Ni-affinity chromatography. Human core histones were purified from HeLa nuclear pellet per the method of Coté et al. S-adenosylmethionine (SAM) was obtained from Sigma-Aldrich (Cat #A7007) and S-[methyl-3H]-SAM was obtained from Perkin-Elmer ([…]). Methods: […] To this was added enzyme diluted to provide a final assay concentration (GLP: 10 nM; PRMT1: 100 nM; SET7/9: 120 nM; PRDM9: 120 nM; PRMT4: 150 nM; PRMT6: 120 nM; G9a: 200 nM) and the compound was allowed to preincubate for 10 minutes at room temperature. […] Samples were mixed immediately after quenching and transferred to a 96-well GFC Uni-Filter microtiter filter plate (Perkin Elmer, Cat#6005174) that contained 50 μl of 20% TCA. Samples were allowed to precipitate for at least 5 minutes at room temperature. The samples were filtered onto the GFC membrane and washed four times with 100 μl of 10% TCA and once with 100 μl of 95% EtOH. To each well was added 25 μl of MicroScint-20 (Perkin-Elmer Cat#6013621) and samples were analyzed using a TopCount NXT microplate scintillation counter. The experiment was performed one time in duplicate for all compound concentrations tested and in triplicate for the vehicle and no enzyme controls. All data was analyzed in GraphPad Prism (v. 5.04).

GLP = biological target: T2, GLP (Homo sapiens, UniProt Q9H9B1); test: Radiometric methyltransferase assay, GLP; format: biochemical; settings: GLP 10 nM; compound 10 μM, 1 μM, or 0.1 μM; FIG. 13
T2 sequence (Q9H9B1 1-1298): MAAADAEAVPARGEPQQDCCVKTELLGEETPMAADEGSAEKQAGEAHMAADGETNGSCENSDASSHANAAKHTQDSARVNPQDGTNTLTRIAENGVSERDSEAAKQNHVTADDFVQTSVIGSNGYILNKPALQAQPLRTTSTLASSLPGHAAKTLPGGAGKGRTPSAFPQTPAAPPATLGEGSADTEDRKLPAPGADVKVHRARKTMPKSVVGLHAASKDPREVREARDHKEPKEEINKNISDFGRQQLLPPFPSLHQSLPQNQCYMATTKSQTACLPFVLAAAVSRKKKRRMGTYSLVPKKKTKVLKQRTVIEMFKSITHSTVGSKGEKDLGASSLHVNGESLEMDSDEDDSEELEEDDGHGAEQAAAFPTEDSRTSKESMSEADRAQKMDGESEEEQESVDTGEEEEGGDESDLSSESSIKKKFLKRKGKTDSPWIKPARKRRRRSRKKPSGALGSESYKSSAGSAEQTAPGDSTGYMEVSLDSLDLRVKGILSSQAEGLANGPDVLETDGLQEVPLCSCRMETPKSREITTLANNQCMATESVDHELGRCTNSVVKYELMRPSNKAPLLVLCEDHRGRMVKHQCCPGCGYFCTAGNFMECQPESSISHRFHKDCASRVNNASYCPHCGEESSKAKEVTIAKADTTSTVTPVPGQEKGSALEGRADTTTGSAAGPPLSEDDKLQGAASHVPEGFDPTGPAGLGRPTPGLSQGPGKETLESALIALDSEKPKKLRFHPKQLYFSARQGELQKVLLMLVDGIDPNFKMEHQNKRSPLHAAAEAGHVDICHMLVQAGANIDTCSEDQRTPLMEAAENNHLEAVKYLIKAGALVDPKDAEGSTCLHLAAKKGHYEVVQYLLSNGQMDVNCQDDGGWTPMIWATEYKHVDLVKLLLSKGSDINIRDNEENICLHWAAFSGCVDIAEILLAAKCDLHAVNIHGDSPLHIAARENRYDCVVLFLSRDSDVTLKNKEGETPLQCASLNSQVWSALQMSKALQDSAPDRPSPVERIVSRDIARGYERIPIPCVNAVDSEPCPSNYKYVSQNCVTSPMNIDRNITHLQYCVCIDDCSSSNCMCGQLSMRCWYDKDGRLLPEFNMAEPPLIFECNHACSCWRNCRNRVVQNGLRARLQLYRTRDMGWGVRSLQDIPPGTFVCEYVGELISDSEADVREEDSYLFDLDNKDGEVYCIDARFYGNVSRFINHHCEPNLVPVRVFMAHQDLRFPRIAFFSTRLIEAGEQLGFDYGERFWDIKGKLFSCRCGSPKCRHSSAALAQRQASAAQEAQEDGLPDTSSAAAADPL
Procedure: as §1

inhibition of enzymatic activity (PRMT4)	inhibition of enzymatic activity (GLP)	Structure (SMILES)
inhibits	not dramatically altering the activity	CSC[C@H]1O[C@@H](n2cnc3c(N)nc(NCCNC(=O)OC(C)(C)C)nc32)[C@H](O)[C@@H]1O [Compound 16A, tert-butyl (2-((6-amino-9-((2R,3R,4S,5S)-3,4-dihydroxy-5-((methylthio)methyl)tetrahydrofuran-2-yl)-9H-purin-2-yl)amino)ethyl)carbamate]
did not show appreciable inhibition	did not show appreciable inhibition	CCNC(=O)[C@H]1O[C@@H](n2cnc3c(N)nc(Cl)nc32)[C@H](O)[C@@H]1O [Compound 20A-iii, 2-chloroadenosine-5′-N-ethylcarboxamide]
did not show appreciable inhibition	did not show appreciable inhibition	CCNC[C@H]1O[C@@H](n2cnc3c(N)nc(Cl)nc32)[C@H](O)[C@@H]1O [Compound 20A-iv, 2-chloroadenosine-5′-N-ethylamine]
